The values that follow come from patent publication US7566781B2, “Imidazopyridine compound” (Banyu Pharmaceutical Co., Ltd., priority 2004, dated 2009).

The target in this assay is T1, human MCH-1R (Homo sapiens, UniProt Q99705).
T1 construct: expressed in transfected cells; host or cells: CHO-K1 (American Type Culture Collection), membrane samples
Nature of the assay: MCH binding inhibition test. Conditions: membranes of MCH-1R expressing CHO-K1 cells, 50 pM [125I]MCH, 25° C., 1 hour, pH 7.4; read-out: IC50 (50% inhibition concentration of test compound to the specific [125I]MCH binding). Here is the method: A human MCH-1R encoding cDNA sequence [FEBS Letters, Vol. 398, 253 (1996); Biochimica et Biophisica Acta, Vol. 1401, 216 (1998)] was cloned to plasmid vector pEF/myc/cyto (Invitrogen Corporation). The obtained expression vector was transfected to a host cell CHO-K1 (American Type Culture Collection) using Lipofectamine Plus Reagent (Life Technology Inc.) to provide MCH-1R expression cells.
Membrane samples prepared from the MCH-1R expression cells were incubated with each test compound and 50 pM of [^125I]MCH (NEN Co.), in an assay buffer (50 mM Tris buffer comprising 10 mM magnesium chloride, 2 mM ethylenediamine tetraacetate, 0.01% bacitracin and 0.2% bovine serum albumin; pH 7.4) at 25° C. for an hour, followed by filtration through Glass Filter GF/C (Wattman Co.). After washing the glass filter with 50 mM Tris buffer (pH 7.4) comprising 10 mM magnesium chloride, 2 mM ethylenediamine tetraacetate and 0.04% Tween-20, the radioactive activity on the glass filter was measured. The non-specific binding was measured in the presence of 1 μM human MCH and 50% inhibition concentration (IC50 value) of each test compound to the specific [^125I]MCH binding was determined.

T1 sequence (Q99705 whole entry): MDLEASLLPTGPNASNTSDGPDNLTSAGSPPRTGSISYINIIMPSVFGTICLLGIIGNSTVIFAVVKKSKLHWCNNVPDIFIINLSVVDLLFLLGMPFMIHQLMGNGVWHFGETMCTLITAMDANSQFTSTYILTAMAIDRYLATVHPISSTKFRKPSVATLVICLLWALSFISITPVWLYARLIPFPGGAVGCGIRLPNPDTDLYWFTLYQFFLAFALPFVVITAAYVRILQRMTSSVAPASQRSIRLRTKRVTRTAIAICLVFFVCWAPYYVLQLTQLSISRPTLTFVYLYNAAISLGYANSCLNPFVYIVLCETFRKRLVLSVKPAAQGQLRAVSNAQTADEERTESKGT

Take `CCc1nc2ccc(NC(=O)c3ccc(OCc4ccccn4)c(F)c3)cn2c1C` [Example 9, N-(2-ethyl-3-methylimidazo[1,2-a]pyridin-6-yl)-3-fluoro-4-(pyridin-2-ylmethoxy)benzamide]: the IC50 was found to be 3.4 nM.

With `CCc1nc2ccc(NC(=O)c3ccc(OCc4ccc(F)cn4)c(F)c3)cn2c1C` [Example 11, N-(2-ethyl-3-methylimidazo[1,2-a]pyridin-6-yl)-3-fluoro-4-[(5-fluoropyridin-2-yl)methoxy]benzamide], the IC50 turned out to be 2.2 nM.

Consider `Cc1c(CCCN2CCCC2)nc2ccc(NC(=O)c3ccc(OCc4ccccc4)cc3)cn12` [Example 17], for which the IC50 came out at 0.49 nM.

`Cc1c(C2CC2)nc2ccc(NC(=O)c3ccc(COc4ccccn4)cc3)cn12` [Example 25]: the IC50 worked out at 8.4 nM.

Regarding `CCc1nc2ccc(NC(=O)c3ccc(/C=C/c4ccccc4)cc3)cn2c1C` [Example 28, N-(2-ethyl-3-methylimidazo[1,2-a]pyridin-6-yl)-4-((E)-2-phenylvinyl)benzamide], the IC50 turned out to be 1.3 nM.

With `Cc1c(C2CCOC2)nc2ccc(NC(=O)c3ccc(/C(F)=C/c4ccccn4)cc3)cn12` (stereo not drawn) [Example 42], the IC50 is 4.8 nM.

Turning to `Cc1c(CCCN2CCCC2)nc2ccc(NC(=O)c3ccc(/C=C/c4ccccn4)cc3)cn12` [Example 48, N-[3-methyl-2-(3-pyrrolidin-1-ylpropyl)imidazo[1,2-a]pyridin-6-yl]-4-[(E)-2-pyridin-2-ylvinyl]benzamide], the IC50 turned out to be 0.47 nM.

For `Cc1c(C(C)C)nc2ccc(NC(=O)c3ccc(CCc4ccccn4)cc3)cn12` [Example 49, N-(2-isopropyl-3-methylimidazo[1,2-a]pyridin-6-yl)-4-(2-pyridin-2-ylethyl)benzamide], the IC50 amounted to 6.2 nM.

With `CCc1nc2ccc(NC(=O)c3ccc(C(F)Cc4ccccn4)cc3)cn2c1C` (stereo not drawn) [Example 58, N-(2-ethyl-3-methylimidazo[1,2-a]pyridin-6-yl)-4-(1-fluoro-2-pyridin-2-ylethyl)benzamide], the IC50 was determined as 3.8 nM.

For `Cc1c(C2CCOC2)nc2ccc(NC(=O)c3ccc(SCc4ccccn4)cc3)cn12` (stereo not drawn) [Example 59, N-[3-methyl-2-(tetrahydrofuran-3-yl)imidazo[1,2-a]pyridin-6-yl]-4-(pyridin-2-ylmethylsulfanyl)benzamide], the IC50 was 3.8 nM.

Take `Cc1c(C2CC2)nc2ccc(NC(=O)c3ccc(NC(=O)c4ccccn4)cc3)cn12` [Example 61, Pyridine-2-carboxylic acid[4-(2-cyclopropyl-3-methylimidazo[1,2-a]pyridin-6-ylcarbamoyl)phenyl]amide]: the IC50 came out at 4.7 nM.

As for `CCc1nc2ccc(NC(=O)c3ccc(Oc4cc(Cl)ccn4)cc3)cn2c1C` [Example 67, 4-(4-Chloropyridin-2-yloxy)-N-(2-ethyl-3-methylimidazo[1,2-a]pyridin-6-yl)benzamide], the IC50 amounted to 4.3 nM.
